A short description of this data set: Solubility of various forms of Compound I in water and pH 1, pH 2 (HCl/KCl) buffers at 25° C., HPLC analysis. It counts as physicochemical. The note with it: stirring 300 rpm, saturated solution; for Solubility, pH 1 Buffer: pH 1 HCl/KCl buffer; for Solubility, pH 2 Buffer: pH 2 HCl/KCl buffer. The procedure:
Solubility of Various Forms of Compound I in Water and pH1, pH2 Buffers
Solubility was measured by adding 25 mg of the various forms of Compound I or an amount adequate to maintain a saturated solution in water and pH 1, pH 2 (HCl/KCl buffers). Temperature of 25° C. and a stirring rate of 300 rpm were maintained by using a HEL Crystal Scan unit (HEL, UK). Samples were withdrawn at the times indicated, filtered and analyzed by HPLC for Compound I using the method described below.
HPLC Method for Measurement of CEP11981 Content of Solubility Samples
Testing was performed on a calibrated ThermoFinnigan High Performance Liquid Chromatography (HPLC) system designated LC-0410-AD. The system comprises a P4000 pump, AS3000 autosampler, and UV2000 detector. A TCM 2000 temperature control module was used to heat the column. All standard solutions and samples were prepared in Class A glass volumetric flasks and were placed in autosampler vials. Standard weightings were done using a calibrated Mettler analytical balance. The sample preparations were centrifuged using an Eppendorf microcentrifuge. The primary chromatography data was acquired and integrated using ChromQuest software. Microsoft Office Excel 2003 was used for the calculation of results.
Column: MS C18, 150×4.6 mm ID, 3.5μ Waters, m Xterra packing
Column Temperature: 30° C.
Detector: UV/VIS @ 270 nm
Mobile Phase A: 10 mM Ammonium Acetate (aqueous)
Mobile Phase B: 10 mM Ammonium Acetate in sample solvent

In brackets after ≈: the same amount, converted by molar mass.

With `CC(C)Cn1c2ccc(Nc3ncccn3)cc2c2c3c(c4c(c21)CCc1nn(C)cc1-4)C(=O)NC3` [AS, 11-isobutyl-2-methyl-8-(2-pyrimidinylamino)-2,5,6,11,12,13-hexahydro-4H-indazolo[5,4-a]pyrrolo[3,4-c]carbazol-4-one], the “Solubility, pH 1 Buffer” value came to 20000 mcg/mL; the “Solubility, pH 2 Buffer” value was determined as 0.04 mcg/mL; the “Solubility, Water” value was less than 1 µg/mL.
For `CC(C)Cn1c2ccc(Nc3ncccn3)cc2c2c3c(c4c(c21)CCc1nn(C)cc1-4)C(=O)NC3` [pTSA-A1, 11-isobutyl-2-methyl-8-(2-pyrimidinylamino)-2,5,6,11,12,13-hexahydro-4H-indazolo[5,4-a]pyrrolo[3,4-c]carbazol-4-one] the same measures were 23 mcg/mL, 0.3 mcg/mL and less than 1 µg/mL.
For `CC(C)Cn1c2ccc(Nc3ncccn3)cc2c2c3c(c4c(c21)CCc1nn(C)cc1-4)C(=O)NC3` [pTSA-A2, 11-isobutyl-2-methyl-8-(2-pyrimidinylamino)-2,5,6,11,12,13-hexahydro-4H-indazolo[5,4-a]pyrrolo[3,4-c]carbazol-4-one] the same measures were 11 mcg/mL, 5 mcg/mL and 20 µg/mL (≈ 41.9 µM).

The record behind these values is patent US8513272B2, “Forms of a fused pyrrolocarbazole compound” (Cephalon, Inc., priority 2008, dated 2013).
